Measurements published in the supplement of paper PMC5844555.

Columns and labels:
Experiment in all cases: 3' UTR reporter interaction score (median-centred robust z-score of log2 firefly/Renilla activity); higher = less repression of the 3' UTR reporter
Details in all cases: HEK293T; 48 h
NOTCH1 = test system: NOTCH1
How it was run: (§1)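 Using DharmaFECT Duo, HEK293T cells (10,000/well, 96-well plates) were co-transfected with 2.5 pmol miRNA mimic, 100 ng firefly luc2P reporter containing the gene's 3' UTR and 20 ng Renilla pRL-TK control, and dual-luciferase activity was read 48 h later. The interaction score is the log firefly/Renilla ratio as a per-plate robust z-score (median, median absolute deviation), median-centred per miRNA, averaged over at least two independent screens; lower, more negative values indicate interaction.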

MYCN = test system: MYCN
How it was run: as §1

BRCA2 = test system: BRCA2
How it was run: as §1

MYB = test system: MYB
How it was run: as §1

TP53 = test system: TP53
How it was run: as §1

ZEB2 = test system: ZEB2
How it was run: as §1

MYC = test system: MYC
How it was run: as §1

EZH2 = test system: EZH2
How it was run: as §1

FBXW7 = test system: FBXW7
How it was run: as §1

PHOX2B = test system: PHOX2B
How it was run: as §1

MYT1L = test system: MYT1L
How it was run: as §1

HRAS = test system: HRAS
How it was run: as §1

PHF6 = test system: PHF6
How it was run: as §1

RB1 = test system: RB1
How it was run: as §1

CUGACCUAUGAAUUGACAGCC
3' UTR reporter interaction score (NOTCH1): 0.282
3' UTR reporter interaction score (MYCN): 1.31
3' UTR reporter interaction score (BRCA2): -0.668
3' UTR reporter interaction score (MYB): 0.682
3' UTR reporter interaction score (TP53): 0.334
3' UTR reporter interaction score (ZEB2): -6.22
3' UTR reporter interaction score (MYC): 1.2
3' UTR reporter interaction score (EZH2): -0.124
3' UTR reporter interaction score (FBXW7): -0.577
3' UTR reporter interaction score (PHOX2B): -1.28
3' UTR reporter interaction score (MYT1L): 0.445
3' UTR reporter interaction score (HRAS): 0.344
3' UTR reporter interaction score (PHF6): -3.78
3' UTR reporter interaction score (RB1): -2.94

UCAGUCUCAUCUGCAAAGAAG
3' UTR reporter interaction score (NOTCH1): -1.13
3' UTR reporter interaction score (MYCN): 1.11
3' UTR reporter interaction score (BRCA2): -0.924
3' UTR reporter interaction score (MYB): -0.485
3' UTR reporter interaction score (TP53): -0.202
3' UTR reporter interaction score (ZEB2): -0.368
3' UTR reporter interaction score (MYC): 0.794
3' UTR reporter interaction score (EZH2): 1.71
3' UTR reporter interaction score (FBXW7): 0.372
3' UTR reporter interaction score (PHOX2B): 0.237
3' UTR reporter interaction score (MYT1L): -1.02
3' UTR reporter interaction score (HRAS): 1.08
3' UTR reporter interaction score (PHF6): -0.895
3' UTR reporter interaction score (RB1): 0.581

GUGCAUUGCUGUUGCAUUGCA
3' UTR reporter interaction score (NOTCH1): 0.367
3' UTR reporter interaction score (MYCN): 0.79
3' UTR reporter interaction score (BRCA2): -0.52
3' UTR reporter interaction score (MYB): -2.09
3' UTR reporter interaction score (TP53): 0.631
3' UTR reporter interaction score (ZEB2): -2.34
3' UTR reporter interaction score (MYC): -1.33
3' UTR reporter interaction score (EZH2): 0.0384
3' UTR reporter interaction score (FBXW7): -0.35
3' UTR reporter interaction score (PHOX2B): 0.67
3' UTR reporter interaction score (MYT1L): 0.516
3' UTR reporter interaction score (HRAS): -0.237
3' UTR reporter interaction score (PHF6): -0.271
3' UTR reporter interaction score (RB1): -0.687

UGAGACCUCUGGGUUCUGAGCU
3' UTR reporter interaction score (NOTCH1): 0.17
3' UTR reporter interaction score (MYCN): 0.725
3' UTR reporter interaction score (BRCA2): -3.69
3' UTR reporter interaction score (MYB): -1.3
3' UTR reporter interaction score (TP53): -1.24
3' UTR reporter interaction score (ZEB2): 1.27
3' UTR reporter interaction score (MYC): 0.551
3' UTR reporter interaction score (EZH2): 1.01
3' UTR reporter interaction score (FBXW7): 0.371
3' UTR reporter interaction score (PHOX2B): -0.781
3' UTR reporter interaction score (MYT1L): 0.762
3' UTR reporter interaction score (HRAS): -0.0086
3' UTR reporter interaction score (PHF6): -0.429
3' UTR reporter interaction score (RB1): 0.176

AAAAUGGUUCCCUUUAGAGUGUU
3' UTR reporter interaction score (NOTCH1): -2.3
3' UTR reporter interaction score (MYCN): 0.195
3' UTR reporter interaction score (BRCA2): -1.38
3' UTR reporter interaction score (MYB): -0.486
3' UTR reporter interaction score (TP53): -1.35
3' UTR reporter interaction score (ZEB2): -1.19
3' UTR reporter interaction score (MYC): 0.494
3' UTR reporter interaction score (EZH2): 0.888
3' UTR reporter interaction score (FBXW7): 0.697
3' UTR reporter interaction score (PHOX2B): -0.183
3' UTR reporter interaction score (MYT1L): 0.818
3' UTR reporter interaction score (HRAS): 0.747
3' UTR reporter interaction score (PHF6): 0.573
3' UTR reporter interaction score (RB1): -2.85

AAACUACUGAAAAUCAAAGAU
3' UTR reporter interaction score (NOTCH1): -0.667
3' UTR reporter interaction score (MYCN): -0.411
3' UTR reporter interaction score (BRCA2): 0.536
3' UTR reporter interaction score (MYB): 0.63
3' UTR reporter interaction score (TP53): 0.261
3' UTR reporter interaction score (ZEB2): -1.71
3' UTR reporter interaction score (MYC): 0.0375
3' UTR reporter interaction score (EZH2): -0.0901
3' UTR reporter interaction score (FBXW7): -0.0213
3' UTR reporter interaction score (PHOX2B): -0.331
3' UTR reporter interaction score (MYT1L): -0.7
3' UTR reporter interaction score (HRAS): -0.566
3' UTR reporter interaction score (PHF6): 0.0968
3' UTR reporter interaction score (RB1): 0.321

CUCCAGAGGGAAGUACUUUCU
3' UTR reporter interaction score (NOTCH1): -0.176
3' UTR reporter interaction score (MYCN): -0.236
3' UTR reporter interaction score (BRCA2): -0.139
3' UTR reporter interaction score (MYB): 1.53
3' UTR reporter interaction score (TP53): -0.641
3' UTR reporter interaction score (ZEB2): 0.514
3' UTR reporter interaction score (MYC): -0.333
3' UTR reporter interaction score (EZH2): -0.448
3' UTR reporter interaction score (FBXW7): 1.4
3' UTR reporter interaction score (PHOX2B): 0.786
3' UTR reporter interaction score (MYT1L): 1.19
3' UTR reporter interaction score (HRAS): -1.03
3' UTR reporter interaction score (PHF6): 1.27
3' UTR reporter interaction score (RB1): -2.92

UAACACUGUCUGGUAAAGAUGG
3' UTR reporter interaction score (NOTCH1): -0.447
3' UTR reporter interaction score (MYCN): 0.21
3' UTR reporter interaction score (BRCA2): -0.392
3' UTR reporter interaction score (MYB): 0.229
3' UTR reporter interaction score (TP53): 0.617
3' UTR reporter interaction score (ZEB2): -7.02
3' UTR reporter interaction score (MYC): 0.0647
3' UTR reporter interaction score (EZH2): -0.173
3' UTR reporter interaction score (FBXW7): -0.104
3' UTR reporter interaction score (PHOX2B): -0.774
3' UTR reporter interaction score (MYT1L): -4.79
3' UTR reporter interaction score (HRAS): 0.0521
3' UTR reporter interaction score (PHF6): -1.93
3' UTR reporter interaction score (RB1): 0.257

UUUUUGCGAUGUGUUCCUAAUA
3' UTR reporter interaction score (NOTCH1): 0.568
3' UTR reporter interaction score (MYCN): -0.818
3' UTR reporter interaction score (BRCA2): 0.151
3' UTR reporter interaction score (MYB): 0.165
3' UTR reporter interaction score (TP53): 0.414
3' UTR reporter interaction score (ZEB2): -2.41
3' UTR reporter interaction score (MYC): 0.66
3' UTR reporter interaction score (EZH2): 1.27
3' UTR reporter interaction score (FBXW7): -2.28
3' UTR reporter interaction score (PHOX2B): 0.492
3' UTR reporter interaction score (MYT1L): 0.157
3' UTR reporter interaction score (HRAS): 0.633
3' UTR reporter interaction score (PHF6): 0.21
3' UTR reporter interaction score (RB1): -2.29
